Measurements as given in patent publication US9682013B2, “Pharmaceutical compositions comprising human antibodies to PCSK9” (SANOFI BIOTECHNOLOGY, priority 2011, dated 2017).

Tests used:
[1] = tested on: patients with an elevated low-density lipoprotein cholesterol (LDL-C) (≧100 mg/dL or 2.59 mmol/L); experiment: Study 1: randomized, double-blind, placebo-controlled 12-week study of antibody 316P on stable atorvastatin; assay type: in vivo, human; conditions: for Cholesterol, Week 12 % change from baseline, Mean / Cholesterol, Week 12 % change from baseline, Median / Cholesterol, Week 12, Mean / Cholesterol, Week 12, Median / Cholesterol, Week 12 change from baseline, Mean / Cholesterol, Week 12 change from baseline, Median / LDL Cholesterol, Week 12—% change from baseline, Mean / LDL Cholesterol, Week 12—% change from baseline, Median / Non-HDL Cholesterol, Week 12 % change from baseline, Mean / Non-HDL Cholesterol, Week 12 % change from baseline, Median / LS mean difference vs. placebo in percent change from baseline in LDL-C at 12 weeks: on stable atorvastatin
Method: This was a multicenter, randomized, double-blind, parallel-group, placebo-controlled, 12-week study to assess the efficacy and safety of antibody 316P in patients with an elevated low-density lipoprotein cholesterol (LDL-C) (≧100 mg/dL or 2.59 mmol/L), when treated with atorvastatin (10 mg, 20 mg, or 40 mg) at a stable dose for at least 6 weeks. The randomization was stratified by the dose of atorvastatin received prior to randomization. After the double-blind period patients were followed during an 8-week follow-up period. The primary objective of the study was to evaluate the effect of antibody 316P on LDL-C levels after 12 weeks of treatment in comparison with placebo in patients with LDL-C (≧100 mg/dL or 2.59 mmol/L) on ongoing stable atorvastatin therapy.
The following doses/dose regimens were evaluated: 50 mg, 100 mg and 150 mg every 2 weeks (E2W), 200 mg and 300 mg every 4 weeks (E4W) in comparison with placebo.
Present study comprised a total of 122 patients (20 in placebo, 19 in 50 mg E2W group, 20 in 100 mg E2W group, 20 in 150 mg E2W group, 22 in 200 mg E4W group, and 21 in 300 mg E4W group).
Inclusion criteria: • Patients (patients receiving a lipid lowering treatment other than atorvastatin/or not at stable dose of atorvastatin 10 mg, 20 mg or 40 mg for at least 6 weeks prior to screening period or drug naïve patients) with primary hypercholesterolemia likely to have low-density lipoprotein cholesterol (LDL-C)≧100 mg/dL (≧2.59 mmol/L) at the end of the run-in period on atorvastatin therapy (Week-1). • OR • Patients with primary hypercholesterolemia treated with atorvastatin at stable dose of 10 mg, 20 mg, or 40 mg for at least 6 weeks prior to screening period and likely to have LDL-C≧100 mg/dL (≧2.59 mmol/L) at the screening visit Week-1. […]

[2] = tested on: patients with Heterozygous Familial Hypercholesterolemia (HeFH) or other forms of primary hypercholesteremia (nonFH); experiment: Study 3: randomized, placebo-controlled, multiple ascending dose trial of 316P in HeFH and nonFH; assay type: in vivo, human; conditions: for mean % reduction in LDL-C on day 57: on top of statins, combined FH and nonFH populations
Source text: This is a randomized, double-blind, placebo-controlled, multiple ascending dose, multicenter clinical trial in subjects with primary hypercholesterolemia.
The objective of this study was to determine whether a fully human monoclonal antibody to PCSK9 (316P) is effective and safe as either a primary or adjunctive agent to lower LDL-C in patients with Heterozygous Familial Hypercholesterolemia (HeFH) or other forms of primary hypercholesteremia (nonFH). 61 adults with either documented HeFH (n=21) or nonFH (n=30), on diet plus stable atorvastatin therapy (atorvaRx) or nonFH (n=10) on diet alone enrolled in this clinical trial. Subjects on stable atorvastatin therapy had LDL-C≧2.6 mmol/L and those on diet alone had LDL-C≧3.4 mmol/L. 316P at doses of 50, 100 and 150 mg was administered subcutaneously (sc) at 1, 29 and 43 days. The primary endpoint was the incidence and severity of treatment emergent adverse events (TEAE). The primary efficacy endpoint was percent and absolute change in serum LDL-C from baseline to each visit. Additional endpoints included apolipoprotein (apo) B, total cholesterol, HDL-C, VLDL-C, and the ratio of apoB to apoA1. 109 patients were screened, and 61 patients were randomized (14 placebo, 47 316P) with 100% completing 148+/−7 days of treatment and follow up. Compared to the nonFH cohort, the FH group was younger (mean 40 vs. 52 yrs), had more males (81% vs. 57%) and was on higher doses of atorvastatin (52% on 40 mg vs. 3%). Baseline LDL-C was 3.45, 2.88 and 4.46 mmol/L in the FH, nonFH atorvaRx and nonFH diet only groups, respectively.

[3] = 12 weeks, all doses/dose regimens

## 316P: fully human anti-PCSK9 antibody comprising a HCVR as shown in SEQ ID NO: 90 and LCVR as shown in SEQ ID NO: 92 [Antibody 316P]
[1]; 50 mg E2W
  Cholesterol, Week 12 % change from baseline, Mean: −24.21%
  Cholesterol, Week 12 % change from baseline, Median: −23.34%
  Cholesterol, Week 12, Mean: 3.974 mmol/L
  Cholesterol, Week 12, Median: 3.937 mmol/L
  Cholesterol, Week 12 change from baseline, Mean: -1.313 mmol/L
  Cholesterol, Week 12 change from baseline, Median: -1.399 mmol/L
  LDL Cholesterol, Week 12—% change from baseline, Mean: −41.06%
  LDL Cholesterol, Week 12—% change from baseline, Median: −37.04%
  Non-HDL Cholesterol, Week 12 % change from baseline, Mean: −35.23%
  Non-HDL Cholesterol, Week 12 % change from baseline, Median: −36.62%
[1]; 100 mg E2W and 150 mg E2W groups, also throughout the interval period between the injections
  maintenance of LDL-C decrease observed after the first injection: maintained throughout the study
[1]; 100 mg E2W
  Cholesterol, Week 12 % change from baseline, Mean: −38.97%
  Cholesterol, Week 12 % change from baseline, Median: −40.21%
  Cholesterol, Week 12, Mean: 3.288 mmol/L
  Cholesterol, Week 12, Median: 3.238 mmol/L
  Cholesterol, Week 12 change from baseline, Mean: -2.098 mmol/L
  Cholesterol, Week 12 change from baseline, Median: -2.163 mmol/L
  LDL Cholesterol, Week 12—% change from baseline, Mean: −63.90%
  LDL Cholesterol, Week 12—% change from baseline, Median: −64.28%
  LS mean difference vs. placebo in percent change from baseline in LDL-C at 12 weeks: −58.36%
  Non-HDL Cholesterol, Week 12 % change from baseline, Mean: −54.78%
  Non-HDL Cholesterol, Week 12 % change from baseline, Median: −55.91%
[1]; 150 mg E2W group, among 18 patients
  number of patients with LDL-C reduction from baseline >50% at week 12: 17
[1]; 150 mg E2W
  Cholesterol, Week 12 % change from baseline, Mean: −45.21%
  Cholesterol, Week 12 % change from baseline, Median: −45.03%
  Cholesterol, Week 12, Mean: 2.922 mmol/L
  Cholesterol, Week 12, Median: 2.823 mmol/L
  Cholesterol, Week 12 change from baseline, Mean: -2.466 mmol/L
  Cholesterol, Week 12 change from baseline, Median: -2.331 mmol/L
  LDL Cholesterol, Week 12—% change from baseline, Mean: −72.68%
  LDL Cholesterol, Week 12—% change from baseline, Median: −74.83%
  LS mean difference vs. placebo in percent change from baseline in LDL-C at 12 weeks: −68.78%
  Non-HDL Cholesterol, Week 12 % change from baseline, Mean: −63.71%
  Non-HDL Cholesterol, Week 12 % change from baseline, Median: −65.94%
[1]; 200 mg E4W
  Cholesterol, Week 12 % change from baseline, Mean: −29.54%
  Cholesterol, Week 12 % change from baseline, Median: −29.51%
  Cholesterol, Week 12, Mean: 3.709 mmol/L
  Cholesterol, Week 12, Median: 3.587 mmol/L
  Cholesterol, Week 12 change from baseline, Mean: -1.596 mmol/L
  Cholesterol, Week 12 change from baseline, Median: -1.716 mmol/L
  LDL Cholesterol, Week 12—% change from baseline, Mean: −47.23%
  LDL Cholesterol, Week 12—% change from baseline, Median: −49.46%
  LS mean difference vs. placebo in percent change from baseline in LDL-C at 12 weeks: −42.53%
  Non-HDL Cholesterol, Week 12 % change from baseline, Mean: −40.07%
  Non-HDL Cholesterol, Week 12 % change from baseline, Median: −39.91%
[1]; 200 mg and 300 mg E4W groups
  decrease in LDL-C during the interval periods: at least −40%
[1]; 300 mg E4W
  Cholesterol, Week 12 % change from baseline, Mean: −29.61%
  Cholesterol, Week 12 % change from baseline, Median: −33.48%
  Cholesterol, Week 12, Mean: 3.778 mmol/L
  Cholesterol, Week 12, Median: 3.393 mmol/L
  Cholesterol, Week 12 change from baseline, Mean: -1.638 mmol/L
  Cholesterol, Week 12 change from baseline, Median: -2.020 mmol/L
  LDL Cholesterol, Week 12—% change from baseline, Median: −51.98%
  LS mean difference vs. placebo in percent change from baseline in LDL-C at 12 weeks: −42.26%
  Non-HDL Cholesterol, Week 12 % change from baseline, Mean: −41.17%
  Non-HDL Cholesterol, Week 12 % change from baseline, Median: −45.55%
[1]; 12 weeks of treatment, all tested doses/dose regimens
  tolerability: well tolerated
[1]; [3]
  ApoB: decrease
  Total-C: decrease
  non HDL-C: decrease
[1]; 12 weeks, all groups
  HDL-C: trend of increase
[1]; all groups
  percent change from baseline in LDL-C at 12 weeks compared to the placebo group: Statistically significant decreases
[1]; all treatment groups
  troponin levels: no change
[1]; all treatment groups except placebo, whole study period
  LDL-C mean values over 12 weeks and LOCF (FIG. 6, words): significant and persistent reduction of LDL-C levels
[2]; 50 mg sc at days 1, 29 and 43
  mean % reduction in LDL-C on day 57: 35.6%
[2]; 100 mg sc at days 1, 29 and 43
  mean % reduction in LDL-C on day 57: 50.2%
[2]; 150 mg sc at days 1, 29 and 43
  mean % reduction in LDL-C on day 57: 57.5%
[2]; 50, 100 and 150 mg sc
  HDL-C: Favourable changes
  apoA1: Favourable changes
  liver function testing or other laboratory parameters: No drug-related adverse effects
  serious adverse events: No serious adverse events
  tolerability: generally well-tolerated
[2]; no statistical analysis performed
  response between FH and nonFH or those on or not on statin therapy: did not appear to be differences in response
